Test: Gastric stability of vitamin D3 in simulated gastric fluid (LC-MS)
Type: in vitro ADME
Settings: 2 h, 37° C., pH 3, pepsin
Method: Degradation of VD3 under the simulated gastric conditions was performed on free VD3 and encapsulated VD3. The simulated gastric fluid (SGF) was prepared according to the method of Minekus et al. (2014). In summary, electrolyte solution was prepared in Milli-Q water at 1.25× of the final concentration and stored at 37° C. To prepare 10 mL solution to be used in the digestion procedure: 7.5 mL SGF, 6 mg pepsin solubilized in 1.6 mL SGF, 5 μL of 0.3 M CaCl2(H2O)2 prepared in water and filtered through a 0.22 μm PSE syringe filter. The pH value was corrected to reach 3, and if needed, water was added to reach 10mL (approximately […]). The solution was then placed in a 37° C. incubator to equilibrate. Cream separated at the end of the incubation period with VD3 was suspended in water at 8% w/v and allowed to briefly incubate at 37° C.
The separated cream (250 mg) containing VD3, obtained as described before, was added to 5 mL of SGF. For the digestion of free VD3 in methanol, 25 μL of 40 mg/mL solution was added to […] of SGF. Solutions were briefly purged with nitrogen and sealed securely. Simulated digestion was carried for 2h at 37° C. At the end of the incubation step, ethanolic pyrogallol solution (10 mL, 1% w/v) was added and vortexed vigorously. Potassium hydroxide (2 mL, 50%w/v) was then added and mixed. […]

In the case of `C=C1CC[C@H](O)C/C1=C/C=C1\CCC[C@]2(C)[C@@H]([C@H](C)CCCC(C)C)CC[C@@H]12` [Cholecalciferol], the “degradation/loss of VD3 in simulated gastric fluid” value (listed as free VD3) is reported as “approximately 6%” and the “degradation/loss of VD3 in simulated gastric fluid” value (listed as un-encapsulated VD3) is reported as “approximately 8%”.

From patent publication US20220175675A1, “ENCAPSULATING MOLECULES IN FAT GLOBULES” (The Regents of the University of California, priority 2019, published 2022)
